Experimental data: US20260146035A1, “FUSED BICYCLIC COMPOUNDS AND THEIR USE AS MER AND AXL INHIBITORS” (DONG-A ST CO., LTD., priority 2022, published 2026)

Assays:
human MER (528-end) = target: T1, human MER (528-end) (Homo sapiens, UniProt Q12866); assay: HTRF kinase activity biochemical assay, MER; conditions: 10 μM ATP, 30 minutes pre-incubation; read-out: HTRF MERTK IC50
T1 construct: human MER (528-end); purchased Camnabio, Japan
T1 sequence (Q12866 528-999 limits assumed): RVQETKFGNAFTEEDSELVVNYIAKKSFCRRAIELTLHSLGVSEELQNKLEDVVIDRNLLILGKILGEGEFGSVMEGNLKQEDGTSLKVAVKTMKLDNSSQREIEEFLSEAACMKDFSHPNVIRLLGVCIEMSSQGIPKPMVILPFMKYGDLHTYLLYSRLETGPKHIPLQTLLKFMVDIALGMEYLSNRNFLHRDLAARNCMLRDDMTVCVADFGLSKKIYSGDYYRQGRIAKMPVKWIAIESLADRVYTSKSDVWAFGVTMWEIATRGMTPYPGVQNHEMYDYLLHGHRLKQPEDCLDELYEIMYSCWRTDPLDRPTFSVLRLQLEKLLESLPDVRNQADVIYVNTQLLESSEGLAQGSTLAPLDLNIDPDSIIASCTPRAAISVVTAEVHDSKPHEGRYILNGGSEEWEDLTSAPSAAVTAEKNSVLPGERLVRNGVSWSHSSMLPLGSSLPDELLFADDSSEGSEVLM

human AXL (473-end) = target: T2, human AXL (473-end) (Homo sapiens, UniProt P30530); assay: HTRF kinase activity biochemical assay, AXL; conditions: 10 μM ATP, 30 minutes pre-incubation
T2 construct: human AXL (473-end); purchased SignalChem, Canada
T2 sequence (P30530 473-894 limits assumed): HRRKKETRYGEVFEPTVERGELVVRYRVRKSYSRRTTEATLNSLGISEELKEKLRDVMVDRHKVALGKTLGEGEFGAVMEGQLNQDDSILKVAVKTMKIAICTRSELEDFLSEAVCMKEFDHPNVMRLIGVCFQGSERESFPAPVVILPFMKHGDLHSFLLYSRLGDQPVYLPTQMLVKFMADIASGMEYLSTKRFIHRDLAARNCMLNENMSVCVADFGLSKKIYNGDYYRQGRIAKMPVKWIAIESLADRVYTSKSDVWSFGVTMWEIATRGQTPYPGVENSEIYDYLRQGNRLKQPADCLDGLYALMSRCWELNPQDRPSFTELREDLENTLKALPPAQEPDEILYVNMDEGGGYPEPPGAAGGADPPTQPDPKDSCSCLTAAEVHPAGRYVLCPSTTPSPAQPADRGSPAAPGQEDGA

human TYRO3 (455-end) = target: T3, human TYRO3 (455-end) (Homo sapiens, UniProt Q06418); assay: HTRF kinase activity biochemical assay, TYRO3; conditions: 10 μM ATP, 30 minutes pre-incubation; read-out: HTRF TYRO IC50
T3 construct: TYRO3 (455-end); purchased SignalChem, Canada
T3 sequence (Q06418 455-890 limits assumed): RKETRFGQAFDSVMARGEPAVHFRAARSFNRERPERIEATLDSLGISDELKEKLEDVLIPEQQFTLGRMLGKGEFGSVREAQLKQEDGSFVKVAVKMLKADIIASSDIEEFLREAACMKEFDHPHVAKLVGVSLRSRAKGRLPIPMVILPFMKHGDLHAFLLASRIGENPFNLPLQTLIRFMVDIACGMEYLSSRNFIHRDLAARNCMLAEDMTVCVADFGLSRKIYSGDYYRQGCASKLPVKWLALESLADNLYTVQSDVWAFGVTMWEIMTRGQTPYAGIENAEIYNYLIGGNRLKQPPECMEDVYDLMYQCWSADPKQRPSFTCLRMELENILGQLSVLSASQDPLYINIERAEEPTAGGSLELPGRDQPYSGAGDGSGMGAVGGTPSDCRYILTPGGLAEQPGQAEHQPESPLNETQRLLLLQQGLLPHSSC

IC50 (human MER (528-end)) [nM] | IC50 (human AXL (473-end)) [nM] | IC50 (human TYRO3 (455-end)) [nM] | SMILES
< 10 | < 10 | 10 to 100 | Cn1cc(-c2cnc(N)c(C(=O)N[C@H]3CCC[C@@H]3OCc3ccc(-c4ccc5c(c4)C(C)(C)CN5C4CCN(CCO)CC4)cc3)c2)ccc1=O [Example 36, 6-amino-N-{(1S,2S)-2-[(4-{1-[1-(2-hydroxyethyl)piperidin-4-yl]-3,3-dimethyl-2,3-dihydro-1H-indol-5-yl}phenyl)methoxy]cyclopentyl}-1′-methyl-6′-oxo-1′,6′-dihydro[3,3′-bipyridine]-5-carboxamide]
< 10 | 10 to 100 | > 1000 | Nc1ncc(-c2ccc(F)nc2)cc1C(=O)N[C@H]1COC[C@@H]1OCc1ccc(-c2ccc3c(ccn3C3CCN(CCO)CC3)c2)cc1 [Example 25, 6-amino-6′-fluoro-N-{(3S,4R)-4-[(4-{1-[1-(2-hydroxyethyl)piperidin-4-yl]-1H-indol-5-yl}phenyl)methoxy]oxolan-3-yl}[3,3′-bipyridine]-5-carboxamide]
100 to 1000 | > 1000 | > 1000 | CN(C)CCC(=O)N1Cc2ccc(-c3ccc(CO[C@H]4CCC[C@@H]4NC(=O)c4cc(-c5cnn(C)c5)cnc4N)cc3)cc2C1 [Example 1, 2-amino-N-{(1S,2S)-2-[(4-{2-[3-(dimethylamino)propanoyl]-2,3-dihydro-1H-isoindol-5-yl}phenyl)methoxy]cyclopentyl}-5-(1-methyl-1H-pyrazol-4-yl)pyridine-3-carboxamide]
< 10 | < 10 | 10 to 100 | Cn1cc(-c2cnc(N)c(C(=O)N[C@H]3CCC[C@@H]3OCc3ccc(-c4ccc5c(c4)OCCC5N4CCN(CCO)CC4)cc3)c2)cn1 (stereo partly drawn) [Example 121, 2-amino-N-{(1S,2S)-2-[(4-{4-[4-(2-hydroxyethyl)piperazin-1-yl]-3,4-dihydro-2H-1-benzopyran-7-yl}phenyl)methoxy]cyclopentyl}-5-(1-methyl-1H-pyrazol-4-yl)pyridine-3-carboxamide]
100 to 1000 | > 1000 | > 1000 | Cn1cc(-c2cnc(N)c(C(=O)N[C@H]3CCC[C@@H]3OCc3ccc(-c4ccc5c(c4)ncn5C4CCN(CCO)CC4)cc3)c2)cn1 [Example 156, 2-amino-N-{(1S,2S)-2-[(4-{1-[1-(2-hydroxyethyl)piperidin-4-yl]-1H-benzimidazol-5-yl}phenyl)methoxy]cyclopentyl}-5-(1-methyl-1H-pyrazol-4-yl)pyridine-3-carboxamide]
< 10 | < 10 | 100 to 1000 | COc1ccnc(N)c1C(=O)N[C@H]1CCC[C@@H]1OCc1ccc(-c2ccc3c(c2)CC[C@@H]3N2CCN(C)CC2)cc1 [Example 139, 2-amino-4-methoxy-N-[(1S,2S)-2-({4-[(1S)-1-(4-methylpiperazin-1-yl)-2,3-dihydro-1H-inden-5-yl]phenyl}methoxy)cyclopentyl]pyridine-3-carboxamide]

Continued, compound first:

SMILES | IC50 (human MER (528-end)) [nM] | IC50 (human AXL (473-end)) [nM] | IC50 (human TYRO3 (455-end)) [nM]
Cn1ccc(-c2cnc(N)c(C(=O)N[C@H]3CCC[C@@H]3OCc3ccc(-c4ccc5c(c4)CC(F)(F)C5N4CCN(CC(O)CO)CC4)cc3)c2)cc1=O (stereo partly drawn) [Example 63, 6-amino-N-{(1S,2S)-2-[(4-{1-[4-(2,3-dihydroxypropyl)piperazin-1-yl]-2,2-difluoro-2,3-dihydro-1H-inden-5-yl}phenyl)methoxy]cyclopentyl}-1′-methyl-2′-oxo-1′,2′-dihydro[3,4′-bipyridine]-5-carboxamide] | < 10 | < 10 | 100 to 1000
Nc1ncc(-c2ccc(F)nc2)cc1C(=O)N[C@H]1CCC[C@@H]1OCc1ccc(-c2ccc3c(c2)CC[C@H]3N2CCN3C[C@H](O)C[C@H]3C2)cc1 [Example 118, 6-amino-6′-fluoro-N-{(1S,2S)-2-[(4-{(1R)-1-[(7R,8aS)-7-hydroxyhexahydropyrrolo[1,2-a]pyrazin-2 (1H)-yl]-2,3-dihydro-1H-inden-5-yl}phenyl)methoxy]cyclopentyl}[3,3′-bipyridine]-5-carboxamide] | < 10 | 10 to 100 | > 1000
Cn1cc(-c2cnc(N)c(C(=O)N[C@H]3CCC[C@@H]3OCc3ccc(-c4ccc5[nH]ccc5c4)cc3)c2)cn1 [Example 68, 2-amino-N-[(1S,2S)-2-{[4-(1H-indol-5-yl)phenyl]methoxy}cyclopentyl]-5-(1-methyl-1H-pyrazol-4-yl)pyridine-3-carboxamide] | < 10 | < 10 | 100 to 1000
Cn1cc(-c2cnc(N)c(C(=O)N[C@H]3CCC[C@@H]3OCc3ccc(-c4ccc5c(c4)C(C)(C)CN5C4CCN(CC(N)=O)CC4)cc3)c2)cn1 [Example 27, 2-amino-N-{(1S,2S)-2-[(4-{1-[1-(2-amino-2-oxoethyl)piperidin-4-yl]-3,3-dimethyl-2,3-dihydro-1H-indol-5-yl}phenyl)methoxy]cyclopentyl}-5-(1-methyl-1H-pyrazol-4-yl)pyridine-3-carboxamide] | < 10 | 10 to 100 | 100 to 1000
Nc1ncc(C(F)(F)F)cc1C(=O)N[C@H]1CCC[C@@H]1OCc1ccc(-c2ccc3c(c2)OCCC3N2CCN(CCO)CC2)cc1 (stereo partly drawn) [Example 133, 2-amino-N-{(1S,2S)-2-[(4-{4-[4-(2-hydroxyethyl)piperazin-1-yl]-3,4-dihydro-2H-1-benzopyran-7-yl}phenyl)methoxy]cyclopentyl}-5-(trifluoromethyl)pyridine-3-carboxamide] | < 10 | < 10 | > 1000
Cc1nn(C)cc1-c1cnc(N)c(C(=O)N[C@H]2COC[C@@H]2OCc2ccc(-c3ccc4c(c3)C(C)(C)CN4C3CCN(CCO)CC3)cc2)c1 [Example 42, 2-amino-5-(1,3-dimethyl-1H-pyrazol-4-yl)-N-{(3S,4R)-4-[(4-{1-[1-(2-hydroxyethyl)piperidin-4-yl]-3,3-dimethyl-2,3-dihydro-1H-indol-5-yl}phenyl)methoxy]oxolan-3-yl}pyridine-3-carboxamide] | < 10 | < 10 | 10 to 100
COc1cccc(-c2cnc(N)c(C(=O)N[C@H]3CCC[C@@H]3OCc3ccc(-c4ccc5c(c4)CC[C@@H]5N4CCN(CCO)CC4)cc3)c2)n1 [Example 178, 6′-amino-N-{(1S,2S)-2-[(4-{(1S)-1-[4-(2-hydroxyethyl)piperazin-1-yl]-2,3-dihydro-1H-inden-5-yl}phenyl)methoxy]cyclopentyl}-6-methoxy[2,3′-bipyridine]-5′-carboxamide] | < 10 | < 10 | 10 to 100
Nc1ncc(C(F)(F)F)cc1C(=O)N[C@H]1CCC[C@@H]1OCc1ccc(-c2ccc3c(ccn3C3CCN(CCO)CC3)c2)cc1 [Example 21, 2-amino-N-{(1S,2S)-2-[(4-{1-[1-(2-hydroxyethyl)piperidin-4-yl]-1H-indol-5-yl}phenyl)methoxy]cyclopentyl}-5-(trifluoromethyl)pyridine-3-carboxamide] | < 10 | 10 to 100 | > 1000
Cc1cc2cc(-c3ccc(CO[C@H]4CCC[C@@H]4NC(=O)c4cc(-c5cnn(C)c5)cnc4N)cc3)ccc2[nH]1 [Example 56, 2-amino-N-[(1S,2S)-2-{[4-(2-methyl-1H-indol-5-yl)phenyl]methoxy}cyclopentyl]-5-(1-methyl-1H-pyrazol-4-yl)pyridine-3-carboxamide] | 10 to 100 | 10 to 100 | > 1000
Cn1cc(-c2cnc(N)c(C(=O)N[C@H]3CCC[C@@H]3OCc3ccc(-c4ccc5c(c4)C(C)(C)C[C@H]5N4CCN(CCO)CC4)cc3)c2)cn1 [Example 96, 2-amino-N-{(1S,2S)-2-[(4-{(1R)-1-[4-(2-hydroxyethyl)piperazin-1-yl]-3,3-dimethyl-2,3-dihydro-1H-inden-5-yl}phenyl)methoxy]cyclopentyl}-5-(1-methyl-1H-pyrazol-4-yl)pyridine-3-carboxamide] | 10 to 100 | 10 to 100 | > 1000
